# Test results published in PMC4503431, “Impaired Itching Perception in Murine Models of Cholestasis Is Supported by Dysregulation of GPBAR1 Signaling” (PLoS ONE, 2015).
# Assays:
# [1] = molecular target: T1, farnesoid X receptor (FXR) (Homo sapiens, UniProt Q96RI1); assay: FXRE (hsp27 IR1) luciferase transactivation in HepG2 cells transfected with FXR and RXR; format: cell-based
# T1 construct: gene NR1H4; pSG5-FXR; with RXR (pSG5-RXR cotransfected)
# T1 sequence (Q96RI1 1-486): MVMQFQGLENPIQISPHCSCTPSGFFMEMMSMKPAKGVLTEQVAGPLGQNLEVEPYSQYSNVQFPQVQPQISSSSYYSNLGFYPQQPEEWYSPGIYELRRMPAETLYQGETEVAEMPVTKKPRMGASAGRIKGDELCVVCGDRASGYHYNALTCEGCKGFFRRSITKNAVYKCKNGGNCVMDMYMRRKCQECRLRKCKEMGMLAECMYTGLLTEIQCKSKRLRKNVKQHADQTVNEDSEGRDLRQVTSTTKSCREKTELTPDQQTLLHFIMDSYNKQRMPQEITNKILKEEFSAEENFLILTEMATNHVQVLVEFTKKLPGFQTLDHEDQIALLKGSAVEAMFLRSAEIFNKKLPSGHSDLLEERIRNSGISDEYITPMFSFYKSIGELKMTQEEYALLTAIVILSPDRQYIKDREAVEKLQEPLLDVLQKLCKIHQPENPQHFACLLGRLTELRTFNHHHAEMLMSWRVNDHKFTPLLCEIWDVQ
# T1 sequence (P19793 1-462 partner): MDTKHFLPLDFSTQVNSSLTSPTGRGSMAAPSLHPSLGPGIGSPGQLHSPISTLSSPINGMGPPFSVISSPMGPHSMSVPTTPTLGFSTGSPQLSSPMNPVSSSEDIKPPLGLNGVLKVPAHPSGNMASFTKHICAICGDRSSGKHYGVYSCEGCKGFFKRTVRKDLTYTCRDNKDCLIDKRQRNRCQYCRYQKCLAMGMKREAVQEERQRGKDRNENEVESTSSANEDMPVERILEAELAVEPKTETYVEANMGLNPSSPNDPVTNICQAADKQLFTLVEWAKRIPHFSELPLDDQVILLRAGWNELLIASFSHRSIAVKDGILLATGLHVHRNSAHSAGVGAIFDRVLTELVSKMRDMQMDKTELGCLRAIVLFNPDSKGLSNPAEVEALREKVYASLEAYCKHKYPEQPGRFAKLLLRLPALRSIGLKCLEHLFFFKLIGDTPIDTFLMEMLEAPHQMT
# [2] = molecular target: T2, GPBAR1 (TGR5) (Homo sapiens, UniProt Q8TDU6); assay: CRE-luciferase transactivation in HEK293T cells transfected with human GPBAR1; format: cell-based
# T2 construct: pCMVSPORT6-human GPBAR1
# T2 sequence (Q8TDU6 1-330): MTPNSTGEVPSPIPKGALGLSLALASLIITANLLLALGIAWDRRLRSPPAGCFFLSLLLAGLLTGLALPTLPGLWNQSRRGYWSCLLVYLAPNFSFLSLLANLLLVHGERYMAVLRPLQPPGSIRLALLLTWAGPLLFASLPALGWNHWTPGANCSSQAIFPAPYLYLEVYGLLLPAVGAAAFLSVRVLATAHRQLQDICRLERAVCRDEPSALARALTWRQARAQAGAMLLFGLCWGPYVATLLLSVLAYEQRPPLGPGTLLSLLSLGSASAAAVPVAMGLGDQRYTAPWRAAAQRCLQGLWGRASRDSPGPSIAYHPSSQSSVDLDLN
smiles,measurement,setting,value
"CC[C@H]1[C@@H](O)[C@@H]2[C@H](CC[C@]3(C)[C@@H]([C@H](C)CCO)CC[C@@H]23)[C@@]2(C)CC[C@@H](O)C[C@@H]12 [BAR502, 6α-ethyl-3α, 7α-dihydroxy-24-nor-5β-cholan-23-ol]",EC50,[1],2000 ± 200 nM
same,EC50,[2],400 ± 100 nM
